Measured values published in patent US20150335548A1, “Oral Care Composition” (COLGATE-PALMOLIVE COMPANY, priority 2012, published 2015).

Tests used:
Assay type in all cases: cell-based
[1] = tested on: 3-day old biofilm of the artificial mouth consortium of bacteria (A. naeslundii, S. oralis, V. parvula, L. casei, F. nucleatum) and S. mutans; experiment: In vitro biofilm removal, 3-day old biofilm (protocol of Example 2); conditions: for Percent Removal of a 3-day Oral Biofilm: […] ionic liquid in base prototype mouth rinse of Table 1, 15 minutes, relative to water control; for Percent Biofilm Removal: BMIM-based ionic liquids
Protocol: The 3-day old biofilm was grown on a 24 well plate using the artificial mouth consortium of bacteria (A. naeslundii, S. oralis, V. parvula, L. casei, F. nucleatum) and S. mutans. To generate the biofilm, plates were inoculated with saliva overnight to form a pellicle. The consortium of bacteria (1 mL) at an OD of ˜0.2 was added to each well. The bacterial media (Tryptic Soy Broth with 6% sucrose) was changed after 48 hours. The 3-day old biofilm was treated with the prototype formulation (500 μL) for 15 minutes on a plate shaker at 300 rpm. After incubation, the supernatant was discarded. The optical density of each well was measured and the percentage reduction in optical density relative to the control (water) was calculated to determine the effect of the prototype formulation on biofilm removal. […]
Water, untreated biofilm, commercially available mouthwash formulations with CPC (Cetyl pyridinium chloride) and a mouthwash containing five enzymes for combatting biofilm acted as […] for the experiment.

A. viscosus = experiment: Growth inhibition of A. viscosus (optical density over time); conditions: for optical density of A. viscosus culture, 0 h / optical density of A. viscosus culture, 4 h / optical density of A. viscosus culture, 22 h / optical density of A. viscosus culture, 24 h: 10% concentration in a mouth rinse
Protocol: The effects of 1-decyl-3-methylimidazolium (DMIM) chloride on bacterial growth were investigated in vitro. DMIM chloride was incorporated into a prototype mouth rinse as illustrated in Table 17. […] The growth inhibition was measured as a change in optical density over time.
The antibacterial effects of various ionic liquids were determined according to the protocol described in Example 12.

[2] = tested on: 3-day old multispecies oral biofilm (artificial mouth consortium combined with Streptococcus mutans); experiment: In vitro removal of biofilm by prototype mouthrinse formulations (Example 8); conditions: for % removal in High humectant mouthwash / % removal in Low humectant mouthwash: 3-day old biofilm; for Percent Biofilm Removal: 10% glycerin and 5% propylene glycol
Protocol: General Procedures Used to Prepare Biofilm
The analyst used a commercially available fluoride dentifrice (Colgate Pro Clinical) and a soft bristled toothbrush (Colgate 360) for routine oral hygiene for 3 days prior to the start of saliva collection. Saliva was collected in the morning, at least two hours after a meal and was centrifuged at 10,000 rpm for 20 minutes. The supernatant was decanted into a Petri dish and placed under UV for 45 minutes.
Bacteria Preparation: Bacteria were taken from the artificial mouth consortium (containing Actinomyces naeslundii, Streptococcus oralis, Veillonella parvula, Lactobacillus casei, and Fusibacterium nucleatum) and combined with Streptococcus mutans which had been grown separately in a ratio of 2:1. Bacteria were grown in tryptic soy broth (TSB) media with 6% sucrose. The resulting bacterial culture was diluted to the required volume, prior to diluting to an optical density of 0.2.
Plate Preparation: 500 μL of UV-treated saliva were added to each well of a 24-well plate. Plates were inoculated overnight in 37° C. After inoculation, excess saliva was discarded and 1 ml of bacteria was added to each well. The bacteria were allowed to attach and develop a biofilm on the bottom of each well over 2 to 4 days, changing the media every 48 hours. During media change, the old media was discarded and 1 ml of fresh media was added.
Treatment: 500 μL of ionic liquid formulation was added to each well and incubated for 4-30 minutes on a plate shaker at 300 rpm. After incubation, the supernatant was discarded. No rinsing was carried out. The optical density of each well was measured at 610 nm, and the percentage reduction in biofilm reduction relative to the control (water) was calculated.
Second Treatment: 500 μL of ionic liquid formulation was added to each well and incubated for 4-30 minutes on a plate shaker at 300 rpm. After discarding the supernatant, the optical density was measured and the percentage reduction in biofilm formation relative to the control (water) was calculated.
An 8 factor design was used. Colgate Plax Re-launch mouth rinse was used a base formulation to build upon. […] Table 11 illustrates the general formulation on the basis of which the prototype formulations were designed.
74 prototype formulations were developed. There are shown below in Table 12 (see next page). Table 12 further illustrates the percentage biofilm reduction after one 15-minute treatment of a 3-day-old biofilm with the formulation, and the viscosity for each formulation. In Table 12, PG is propylene glycol; CPC is cetyl pyridinium chloride; and TRIS is tris(2-hydroxyethyl)methylammonium methylsulfate. All amounts are given in wt %.

[3] = other ionic liquids, 3-day old biofilm
[4] = […] in base prototype mouth rinse of Table 1, 3-day old biofilm
[5] = EMIM-based ionic liquids, […] in base prototype mouth rinse of Table 1, 3-day old biofilm
[6] = direct comparison EMIM vs BMIM with different anions, 3-day old biofilm
[7] = one ionic liquid at 10, the other at 0
[8] = one ionic liquid at 20, the other at 0

1,2,4-trimethylpyrazolium methylsulfate [MMMPz MeSO4]
Percent Removal of a 3-day Oral Biofilm [1]: 57.8% | Percent Biofilm Removed [1, 3]: 57.9% | optical density of A. viscosus culture, 0 h (A. viscosus): 0.1482 | optical density of A. viscosus culture, 4 h (A. viscosus): 0.1978 | optical density of A. viscosus culture, 22 h (A. viscosus): 0.8519 | optical density of A. viscosus culture, 24 h (A. viscosus): 1.0042

CCCCCCCCOS(=O)(=O)[O-].CCCCn1cc[n+](C)c1 [BMIM Octyl SO4, BMIM octyl sulfate]
Percent Biofilm Removal [1, 4]: 58.6% | Percent Removal of a 3-day Oral Biofilm [1]: 58.6%

CC(=O)[O-].CCn1cc[n+](C)c1 [EMIM OAc, EMIM acetate]
Percent Biofilm Removed [1, 5]: 52.1% | Percent Removal of a 3-day Oral Biofilm [1]: 52.1% | Percent Biofilm Removed [1, 6]: 52.1% | optical density of A. viscosus culture, 0 h (A. viscosus): 0.1482 | optical density of A. viscosus culture, 4 h (A. viscosus): 0.2324 | optical density of A. viscosus culture, 22 h (A. viscosus): 0.7942 | optical density of A. viscosus culture, 24 h (A. viscosus): 0.8223

choline acetate
optical density of A. viscosus culture, 0 h (A. viscosus): 0.1482 | optical density of A. viscosus culture, 4 h (A. viscosus): 0.2559 | optical density of A. viscosus culture, 22 h (A. viscosus): 0.9480 | optical density of A. viscosus culture, 24 h (A. viscosus): 1.0385

CCn1cc[n+](C)c1.[Cl-] [EMIM Cl, 1-ethyl-3-methylimidazolium (EMIM) chloride]
Percent Biofilm Removed [1, 5]: 44.3% | Percent Removal of a 3-day Oral Biofilm [1]: 44.3% | Percent Biofilm Removed [1, 6]: 44.3%

C[N+](C)(C)CCO.[Cl-] [F: Choline chloride, Choline chloride]
optical density of A. viscosus culture, 0 h (A. viscosus): 0.1482 | optical density of A. viscosus culture, 4 h (A. viscosus): 0.2445 | optical density of A. viscosus culture, 22 h (A. viscosus): 1.0236 | optical density of A. viscosus culture, 24 h (A. viscosus): 1.0674

C=CCn1cc[n+](C)c1.[Cl-] [AMIM Cl, 1-allyl-3-methylimidazolium (AMIM) chloride]
biofilm removal, comparison in words ([1]; 3-day old biofilm): effective in removing biofilm | Percent Removal of a 3-day Oral Biofilm [1]: 44.8% | Percent Biofilm Removed [1, 3]: 44.8% | optical density of A. viscosus culture, 0 h (A. viscosus): 0.1482 | optical density of A. viscosus culture, 4 h (A. viscosus): 0.2265 | optical density of A. viscosus culture, 22 h (A. viscosus): 0.7091 | optical density of A. viscosus culture, 24 h (A. viscosus): 0.8440

CCCCn1cc[n+](C)c1.COS(=O)(=O)[O-] [BMIM MeSO4, BMIM methyl sulfate]
Percent Biofilm Removal [1, 4]: 53.9% | Percent Removal of a 3-day Oral Biofilm [1]: 53.9%

COS(=O)(=O)[O-].Cc1n(C)cc[n+]1C [TMIM MeSO4, 1,2,3-trimethylimidazolium (TMIM) methyl sulfate]
Percent Removal of a 3-day Oral Biofilm [1]: 51.8% | Percent Biofilm Removed [1, 3]: 51.8%

CCCCn1cc[n+](C)c1.[Cl-] [BMIM Cl, 1-butyl-3-methylimidazolium (BMIM) chloride]
Percent Biofilm Removal [1, 4]: 43.8% | Percent Removal of a 3-day Oral Biofilm [1]: 43.8% | Percent Biofilm Removed [1, 6]: 43.8%

OC[C@@H](O)[C@@H](O)[C@H](O)[C@@H](O)CO [sorbitol]
increase in biofilm removal ([2]; 20% sorbitol in the formulations): ~5%

CCOP(=O)([O-])OCC.CCn1cc[n+](C)c1 [EMIM diethyl PO4, EMIM diethyl phosphate]
Percent Biofilm Removed [1, 5]: 52.7% | Percent Removal of a 3-day Oral Biofilm [1]: 52.7%

tris(2-hydroxyethyl)methylammonium methylsulfate [MTEOA MeSO4]
Percent Removal of a 3-day Oral Biofilm [1]: 52.8% | Percent Biofilm Removed [1, 3]: 52.8% | % removal in High humectant mouthwash ([2]; Conc Tris-HMAM 1%): 39.0% | % removal in Low humectant mouthwash ([2]; Conc Tris-HMAM 1%): 25.6% | % removal in High humectant mouthwash ([2]; Conc Tris-HMAM 2.5%): 50.5% | % removal in Low humectant mouthwash ([2]; Conc Tris-HMAM 2.5%): 28.2% | % removal in High humectant mouthwash ([2]; Conc Tris-HMAM 5%): 53.9% | % removal in Low humectant mouthwash ([2]; Conc Tris-HMAM 5%): 30.9% | % removal in High humectant mouthwash ([2]; Conc Tris-HMAM 10%): 57.7% | % removal in Low humectant mouthwash ([2]; Conc Tris-HMAM 10%): 46.8% | % removal in High humectant mouthwash ([2]; Conc Tris-HMAM 20%): 71.1% | % removal in Low humectant mouthwash ([2]; Conc Tris-HMAM 20%): 57.3% | % removal in High humectant mouthwash ([2]; Conc Tris-HMAM 40%): 73.2% | % removal in Low humectant mouthwash ([2]; Conc Tris-HMAM 40%): 67.1% | Percent Biofilm Removal [2, 7]: 47% | Percent biofilm removal if sorbitol at 20% [2, 7]: 52% | Percent Biofilm Removal [2, 8]: 60% | Percent biofilm removal if sorbitol at 20% [2, 8]: 65% | optical density of A. viscosus culture, 0 h (A. viscosus): 0.1482 | optical density of A. viscosus culture, 4 h (A. viscosus): 0.2605 | optical density of A. viscosus culture, 22 h (A. viscosus): 0.8415 | optical density of A. viscosus culture, 24 h (A. viscosus): 0.9087

CCn1cc[n+](C)c1.Cc1ccc(S(=O)(=O)[O-])cc1 [EMIM Tosylate, EMIM tosylate]
Percent Biofilm Removed [1, 5]: 59.5% | Percent Removal of a 3-day Oral Biofilm [1]: 59.5%

C[N+](C)(C)CCO.O=C([O-])c1ccccc1O [Choline salicylate, choline salicylate]
Percent Biofilm Removal [2, 7]: 48% | Percent biofilm removal if sorbitol at 20% [2, 7]: 53% | Percent Biofilm Removal [2, 8]: 61% | Percent biofilm removal if sorbitol at 20% [2, 8]: 66% | optical density of A. viscosus culture, 0 h (A. viscosus): 0.1482 | optical density of A. viscosus culture, 4 h (A. viscosus): 0.1523 | optical density of A. viscosus culture, 22 h (A. viscosus): 0.1542 | optical density of A. viscosus culture, 24 h (A. viscosus): 0.1539 | growth inhibition of A. viscosus, in words (A. viscosus; formulated at 10% concentration in a mouth rinse): greater growth inhibition of A. viscosus than control compositions containing cetyl pyridinium chloride

CC(=O)[O-].CCCCn1cc[n+](C)c1 [BMIM OAc, BMIM acetate]
Percent Biofilm Removal [1, 4]: 55.8% | Percent Removal of a 3-day Oral Biofilm [1]: 55.9% | Percent Biofilm Removed [1, 6]: 55.8%

CCCCn1cc[n+](C)c1.[Br-] [BMIM Br, 1-butyl-3-methylimidazolium (BMIM) bromide]
Percent Biofilm Removal [1, 4]: 48.0% | Percent Removal of a 3-day Oral Biofilm [1]: 48.0% | Percent Biofilm Removed [1, 6]: 48.0% | optical density of A. viscosus culture, 0 h (A. viscosus): 0.1482 | optical density of A. viscosus culture, 4 h (A. viscosus): 0.2373 | optical density of A. viscosus culture, 22 h (A. viscosus): 0.5994 | optical density of A. viscosus culture, 24 h (A. viscosus): 0.8244
